Experimental data: patent US20030143215A1, “Carbonyl stress-ameliorating agents” (priority 1999, published 2003)

B1: glyoxalase I: commercially available enzyme (Sigma) derived from yeast, lactoyl GSH lyase (EC. 4.4.1.5) (protein, UniProt P50107 1-326, looked up)
Glyoxalase I: MSTDSTRYPIQIEKASNDPTLLLNHTCLRVKDPARTVKFYTEHFGMKLLSRKDFEEAKFSLYFLSFPKDDIPKNKNGEPDVFSAHGVLELTHNWGTEKNPDYKINNGNEEPHRGFGHICFSVSDINKTCEELESQGVKFKKRLSEGRQKDIAFALGPDGYWIELITYSREGQEYPKGSVGNKFNHTMIRIKNPTRSLEFYQNVLGMKLLRTSEHESAKFTLYFLGYGVPKTDSVFSCESVLELTHNWGTENDPNFHYHNGNSEPQGYGHICISCDDAGALCKEIEVKYGDKIQWSPKFNQGRMKNIAFLKDPDGYSIEVVPHGLIA

Key:
[1] = in vitro; Miyata T., J. Am. Soc. Nephrol. 11: 1719-1725, 2000; cited from earlier work
[2] = Incubation of sera with thiol compounds, production of AGE; conditions: sera from a normal person and patients with diabetes mellitus; a long period was required
Text: As described above, a decrease in concentration of redox coenzymes, such as GSH and NAD (P), is suspected to be the cause of AGE formation because of a decreased elimination of carbonyl compounds. […] Based on this theory, the present inventors tried to directly administer thiol compounds, such as GSH and cystein.

[3] = 400 μM methylglyoxal, 0-8 mM glutathione, PBS(-) pH7.4, 37° C., 0-24 hours; FIG. 1
Experimental: The solutions were incubated at 37° C. Samples were taken after 0, 2, 4, 8, and 24 hours; and 40 μl of 2 M perchlorate, 40 μl of 1% o-phenylenediamine, and 100 μl of 200 μM glyoxal were added to 100 μl of each sample. The mixtures were stirred, and then incubated at 25° C. for one hour.

[4] = Elimination of methylglyoxal from methylglyoxal solutions in the presence of glutathione and glyoxalase I; assay type: biochemical; conditions: 400 μM methylglyoxal, 4 mM glutathione, glyoxalase I 8-80 unit/ml, 37° C., 1 hour; FIG. 2
Experimental: PBS(-) solutions were prepared, whose methylglyoxal concentration were 400 μM, glutathione concentration 4 mM, and the concentration of an enzyme having glyoxalase I activity were 8, 16, 40, and 80 unit/ml, respectively. The solutions were incubated at 37° C. A commercially available enzyme (Sigma) derived from yeast was used as the glyoxalase I. Samples were taken after 1 hour, and then methylglyoxal was quantified by the same method as in Example 1.

[5] = Dicarbonyl compound elimination in mixed solutions containing three dicarbonyl compounds; assay type: biochemical; conditions: FIG. 4
Experimental: PBS(-) solutions (pH7. 4) were prepared, whose concentrations of glyoxal, methylglyoxal, and 3-deoxyglucosone were all 200 μM, glutathione concentration were 0, 0.5, 1, or 5 mM, and glyoxalase I concentration were 0, 0.05, 0.1, 0.5, 1, or 2 unit/ml.

[6] = Dicarbonyl compound elimination in solutions separately containing each dicarbonyl compound; assay type: biochemical; conditions: 100 μM dicarbonyl, glutathione 0-10 mM, glyoxalase I 0-10 unit/ml, 37° C., 1 hour; FIG. 5
Experimental: PBS(-) solutions (pH 7.4) were prepared, whose glyoxal concentration were 100 μM, glutathione concentration 0, 0.1, 1, or 10 mM, and glyoxalase I concentration 0, 0.01, 0.1, 1, or 10 unit/ml. […] The same method was used for methylglyoxal and 3-deoxyglucosone in place of glyoxal.

Molecule	trapping of carbonyl compounds methylglyoxal and glyoxal [1]	production of AGE in sera [2]	other results
N=C(N)NN [aminoguanidine]	efficiently trap carbonyl compounds	–	–
CCCCNC(=N)NC(=N)N [buformin]	efficiently trap carbonyl compounds	–	–
N[C@@H](CS)C(=O)O [cystein, reference compound]	–	suppressed the production of AGE	–
N[C@@H](CCC(=O)N[C@@H](CS)C(=O)NCC(=O)O)C(=O)O [glutathione]	–	suppressed the production of AGE	methylglyoxal trapping (residual rate of methylglyoxal) [3]: trapped by glutathione depending on the concentration of glutathione and incubation time
CN(C)C(=N)N=C(N)N [metformin]	efficiently trap carbonyl compounds	–	–
B1	–	–	methylglyoxal eliminated [4]: Approximately 99%; concentrations of dicarbonyl compounds in mixed solution ([5]; 200 μM each dicarbonyl, glutathione 0-5 mM, glyoxalase I 0-2 unit/ml, 37° C., 1 hour): Decrease in the concentrations of dicarbonyl compounds was observed; elimination of 3-deoxyglucosone in the mixed solution of three dicarbonyl compounds ([5]; coexistence of methylglyoxal and glyoxal, 200 μM each): decreased; concentrations of dicarbonyl compounds in solutions containing one dicarbonyl compound [6]: concentrations of dicarbonyl compounds decreased
